Patent publication US20070173462A1, “Treatment of diseases associated with the use of antibiotics” (Optimer Pharmaceuticals, Inc., priority 2004, published 2007)
≈ marks a conversion by molar mass, not a printed value. Read-outs that look alike come from different tables or passages of the source.

Assays:
Assay type in all cases: cell-based
[1] = tested on: Anaerobic Gram positive cocci; assay: organism not typed; conditions: clinical gastrointestinal isolates, n=49
[2] = tested on: C. difficile; assay: microbe, parasite or virus in culture; conditions: clinical isolates, n=23
[3] = tested on: C. difficile; assay: MIC via agar dilution, 110 genetically distinct clinical isolates of C. difficile

In the case of `CCc1c(Cl)c(O)c(Cl)c(O)c1C(=O)O[C@H]1[C@H](O)[C@H](OC)[C@H](OC/C2=C\C=C\C[C@H](O)/C(C)=C/[C@H](CC)C(O[C@@H]3OC(C)(C)[C@@H](OC(=O)C(C)C)[C@H](O)[C@@H]3O)/C(C)=C/C(C)=C/C[C@@H](C(C)O)OC2=O)O[C@@H]1C` (stereo partly drawn) [Compound I], the MIC50 [1] is reported as 0.5 µg/mL (≈ 0.473 µM), the MIC90 [1] is reported as 2 µg/mL (≈ 1.89 µM) and the “Range (MIC)” value [1] is reported as 0.06 to 1024 µg/mL. For the same molecule, the MIC50 ([2]; Clostridioides difficile) was 0.12 µg/mL (≈ 0.113 µM), the MIC90 ([2]; Clostridioides difficile) was 0.25 µg/mL (≈ 0.236 µM) and the “Range (MIC)” value [2] was 0.062 to 2 µg/mL. The “Range (MIC)” value ([3]; 110 clinical isolates, agar dilution) was 0.015 to 0.25 µg/mL, the MIC ([3]; Clostridioides difficile) was 0.125 µg/mL (≈ 0.118 µM) and the MIC ([3]; Clostridioides difficile, isolate ORG ID 61 5930, read-out: MIC) was 0.03 µg/mL (≈ 0.0284 µM). It also gave an MIC ([3]; Clostridioides difficile, isolate ORG ID 63 6029, read-out: MIC) of 0.25 µg/mL (≈ 0.236 µM), an MIC ([3]; Clostridioides difficile, isolate ORG ID 65 5967, read-out: MIC) of 0.06 µg/mL (≈ 0.0567 µM) and an MIC ([3]; Clostridioides difficile, isolate ORG ID 66 6366, read-out: MIC) of 0.015 µg/mL (≈ 0.0142 µM). For the same molecule, the MIC ([3]; Clostridioides difficile, isolate ORG ID 68 6368, read-out: MIC) was 0.03 µg/mL (≈ 0.0284 µM), the MIC ([3]; Clostridioides difficile, isolate ORG ID 69 6370, read-out: MIC) was 0.25 µg/mL (≈ 0.236 µM) and the MIC ([3]; Clostridioides difficile, isolate ORG ID 73 6382, read-out: MIC) was 0.25 µg/mL (≈ 0.236 µM). For the same molecule, the MIC ([3]; Clostridioides difficile, isolate ORG ID 77 6390, read-out: MIC) was 0.06 µg/mL (≈ 0.0567 µM), the MIC ([3]; Clostridioides difficile, isolate ORG ID 78 6392, read-out: MIC) was 0.015 µg/mL (≈ 0.0142 µM) and the MIC ([3]; Clostridioides difficile, isolate ORG ID 82 6329, read-out: MIC) was 0.06 µg/mL (≈ 0.0567 µM). For the same molecule, the MIC ([3]; Clostridioides difficile, isolate ORG ID 83 6330, read-out: MIC) was 0.06 µg/mL (≈ 0.0567 µM), the MIC ([3]; Clostridioides difficile, isolate ORG ID 85 6332, read-out: MIC) was 0.06 µg/mL (≈ 0.0567 µM) and the MIC ([3]; Clostridioides difficile, isolate ORG ID 86 6333, read-out: MIC) was 0.03 µg/mL (≈ 0.0284 µM). The MIC ([3]; Clostridioides difficile, isolate ORG ID 89 6336, read-out: MIC) was 0.25 µg/mL (≈ 0.236 µM), the MIC ([3]; Clostridioides difficile, isolate ORG ID 94 6343, read-out: MIC) was 0.015 µg/mL (≈ 0.0142 µM) and the MIC ([3]; Clostridioides difficile, isolate ORG ID 96 6348, read-out: MIC) was 0.06 µg/mL (≈ 0.0567 µM). For the same molecule, the MIC ([3]; Clostridioides difficile, isolate ORG ID 97 6349, read-out: MIC) was 0.25 µg/mL (≈ 0.236 µM), the MIC ([3]; Clostridioides difficile, isolate ORG ID 101 6354, read-out: MIC) was 0.015 µg/mL (≈ 0.0142 µM) and the MIC ([3]; Clostridioides difficile, isolate ORG ID 102 6355, read-out: MIC) was 0.016 µg/mL (≈ 0.0151 µM). For the same molecule, the MIC ([3]; Clostridioides difficile, isolate ORG ID 103 6068, read-out: MIC) was 0.06 µg/mL (≈ 0.0567 µM), the MIC ([3]; Clostridioides difficile, isolate ORG ID 104 6060, read-out: MIC) was 0.03 µg/mL (≈ 0.0284 µM) and the MIC ([3]; Clostridioides difficile, isolate ORG ID 105 6071, read-out: MIC) was 0.03 µg/mL (≈ 0.0284 µM). The MIC ([3]; Clostridioides difficile, isolate ORG ID 106 6078, read-out: MIC) was 0.03 µg/mL (≈ 0.0284 µM), the MIC ([3]; Clostridioides difficile, isolate ORG ID 107 6079, read-out: MIC) was 0.06 µg/mL (≈ 0.0567 µM) and the MIC ([3]; Clostridioides difficile, isolate ORG ID 109 6274, read-out: MIC) was 0.015 µg/mL (≈ 0.0142 µM). It also gave an MIC ([3]; Clostridioides difficile, isolate ORG ID 111 6279, read-out: MIC) of 0.03 µg/mL (≈ 0.0284 µM), an MIC ([3]; Clostridioides difficile, isolate ORG ID 112 6280, read-out: MIC) of 0.06 µg/mL (≈ 0.0567 µM) and an MIC ([3]; Clostridioides difficile, isolate ORG ID 113 6304, read-out: MIC) of 0.06 µg/mL (≈ 0.0567 µM). It also gave an MIC ([3]; Clostridioides difficile, isolate ORG ID 114 386, read-out: MIC) of 0.06 µg/mL (≈ 0.0567 µM), an MIC ([3]; Clostridioides difficile, isolate ORG ID 115 5985, read-out: MIC) of 0.015 µg/mL (≈ 0.0142 µM) and an MIC ([3]; Clostridioides difficile, isolate ORG ID 116 5702, read-out: MIC) of 0.06 µg/mL (≈ 0.0567 µM). For the same molecule, the MIC ([3]; Clostridioides difficile, isolate ORG ID 117 6026, read-out: MIC) was 0.06 µg/mL (≈ 0.0567 µM), the MIC ([3]; Clostridioides difficile, isolate ORG ID 120 6057, read-out: MIC) was 0.03 µg/mL (≈ 0.0284 µM) and the MIC ([3]; Clostridioides difficile, isolate ORG ID 121 6072, read-out: MIC) was 0.06 µg/mL (≈ 0.0567 µM). It also gave an MIC ([3]; Clostridioides difficile, isolate ORG ID 122 6111, read-out: MIC) of 0.25 µg/mL (≈ 0.236 µM), an MIC ([3]; Clostridioides difficile, isolate ORG ID AA2 4380, read-out: MIC) of 0.015 µg/mL (≈ 0.0142 µM) and an MIC ([3]; Clostridioides difficile, isolate ORG ID AB2 1725, read-out: MIC) of 0.06 µg/mL (≈ 0.0567 µM). It also gave an MIC ([3]; Clostridioides difficile, isolate ORG ID AC1 1546, read-out: MIC) of 0.06 µg/mL (≈ 0.0567 µM), an MIC ([3]; Clostridioides difficile, isolate ORG ID AJ1 1557, read-out: MIC) of 0.06 µg/mL (≈ 0.0567 µM) and an MIC ([3]; Clostridioides difficile, isolate ORG ID AL1 1753, read-out: MIC) of 0.06 µg/mL (≈ 0.0567 µM). It also gave an MIC ([3]; Clostridioides difficile, isolate ORG ID AV1 941, read-out: MIC) of 0.25 µg/mL (≈ 0.236 µM), an MIC ([3]; Clostridioides difficile, isolate ORG ID B1 832, read-out: MIC) of 0.06 µg/mL (≈ 0.0567 µM) and an MIC ([3]; Clostridioides difficile, isolate ORG ID BH1 4506, read-out: MIC) of 0.06 µg/mL (≈ 0.0567 µM). It also gave an MIC ([3]; Clostridioides difficile, isolate ORG ID BM1 1453, read-out: MIC) of 0.06 µg/mL (≈ 0.0567 µM), an MIC ([3]; Clostridioides difficile, isolate ORG ID BR1 1321, read-out: MIC) of 0.06 µg/mL (≈ 0.0567 µM) and an MIC ([3]; Clostridioides difficile, isolate ORG ID BT1 706, read-out: MIC) of 0.06 µg/mL (≈ 0.0567 µM). For the same molecule, the MIC ([3]; Clostridioides difficile, isolate ORG ID CB1 1584, read-out: MIC) was 0.25 µg/mL (≈ 0.236 µM), the MIC ([3]; Clostridioides difficile, isolate ORG ID CL1 3851, read-out: MIC) was 0.25 µg/mL (≈ 0.236 µM) and the MIC ([3]; Clostridioides difficile, isolate ORG ID CN1 667, read-out: MIC) was 0.25 µg/mL (≈ 0.236 µM). The MIC ([3]; Clostridioides difficile, isolate ORG ID CO1 4652, read-out: MIC) was 0.25 µg/mL (≈ 0.236 µM), the MIC ([3]; Clostridioides difficile, isolate ORG ID D1 1360, read-out: MIC) was 0.03 µg/mL (≈ 0.0284 µM) and the MIC ([3]; Clostridioides difficile, isolate ORG ID E1 816, read-out: MIC) was 0.06 µg/mL (≈ 0.0567 µM). For the same molecule, the MIC ([3]; Clostridioides difficile, isolate ORG ID J1 5971, read-out: MIC) was 0.06 µg/mL (≈ 0.0567 µM), the MIC ([3]; Clostridioides difficile, isolate ORG ID J7 4224, read-out: MIC) was 0.03 µg/mL (≈ 0.0284 µM) and the MIC ([3]; Clostridioides difficile, isolate ORG ID J9 4478, read-out: MIC) was 0.06 µg/mL (≈ 0.0567 µM). The MIC ([3]; Clostridioides difficile, isolate ORG ID O1 1861, read-out: MIC) was 0.06 µg/mL (≈ 0.0567 µM), the MIC ([3]; Clostridioides difficile, isolate ORG ID R6 6015, read-out: MIC) was 0.015 µg/mL (≈ 0.0142 µM) and the MIC ([3]; Clostridioides difficile, isolate ORG ID Y1 5639, read-out: MIC) was 0.06 µg/mL (≈ 0.0567 µM). The MIC ([3]; Clostridioides difficile, isolate ORG ID Y2 1459, read-out: MIC) was 0.06 µg/mL (≈ 0.0567 µM), the MIC ([3]; Clostridioides difficile, isolate ORG ID Z1 3036, read-out: MIC) was 0.03 µg/mL (≈ 0.0284 µM) and the MIC50 ([3]; Clostridioides difficile, 110 clinical isolates, agar dilution) was 0.125 µg/mL (≈ 0.118 µM).
